Results: PubChem BioAssay AID248 (DTP/NCI, 2004)
“And” between values parts separate entries of the source, which are not always exact repeats. Equal entries are not always repeated. Inconclusive results and toxic doses are left out. Rule as the data show it: active = T/C of 150% or more; inactive = T/C below 125%.

System: L1210 leukemia ip in BDF1 mice, survival T/C
Assay: NCI In Vivo Anticancer Drug Screen. Data for tumor model L1210 Leukemia (intraperitoneal) in B6D2F1 (BDF1) mice
Conditions: endpoint: mean survival time, higher = longer survival
Method in brief: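 Value reflects the ratio of survival in compound-treated mice to survival in vehicle-treated controls, with both groups carrying the same transplanted tumor.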

[1] = dose: 50.0 mg/kg/injection, schedule: Q01DX001 (ip), vehicle: saline
[2] = dose: 100.0 mg/kg/injection, schedule: Q01DX001 (ip), vehicle: saline
[3] = dose: 200.0 mg/kg/injection, schedule: Q01DX001 (ip), vehicle: saline
[4] = dose: 100.0 mg/kg/injection, schedule: Q04DX002 (ip), vehicle: saline
[5] = dose: 100.0 mg/kg/injection, schedule: Q04DX003 (ip), vehicle: saline
[6] = dose: 200.0 mg/kg/injection, schedule: Q04DX002 (ip), vehicle: saline
[7] = dose: 200.0 mg/kg/injection, schedule: Q04DX003 (ip), vehicle: saline
[8] = dose: 400.0 mg/kg/injection, schedule: Q04DX002 (ip), vehicle: saline
[9] = dose: 400.0 mg/kg/injection, schedule: Q04DX003 (ip), vehicle: saline
[10] = dose: 100.0 mg/kg/injection, schedule: Q04DX003 (ip), vehicle: saline with Tween-80
[11] = dose: 200.0 mg/kg/injection, schedule: Q04DX003 (ip), vehicle: saline with Tween-80
[12] = dose: 400.0 mg/kg/injection, schedule: Q04DX003 (ip), vehicle: saline with Tween-80
[13] = dose: 100.0 mg/kg/injection, schedule: Q01DX009 (ip), vehicle: Klucel (hydroxypropylcellulose) (HPC)
[14] = dose: 200.0 mg/kg/injection, schedule: Q01DX009 (ip), vehicle: Klucel (hydroxypropylcellulose) (HPC)
[15] = dose: 400.0 mg/kg/injection, schedule: Q01DX009 (ip), vehicle: Klucel (hydroxypropylcellulose) (HPC)
[16] = dose: 100.0 mg/kg/injection, schedule: Q01DX009 (ip), vehicle: saline with Tween-80
[17] = dose: 200.0 mg/kg/injection, schedule: Q01DX009 (ip), vehicle: saline with Tween-80
[18] = dose: 400.0 mg/kg/injection, schedule: Q01DX009 (ip), vehicle: saline with Tween-80

Measured: T/C

c1ccc2c(c1)[nH]c1c[n+]3c(c[n+]12)[nH]c1ccccc13
inactive: [1] 107 % of control | [2] 98 % of control | [3] 113 % of control

CCC(NC(C)=O)C(=O)O (centres undefined)
inactive: [4] 101 % of control | [5] 104 % of control | [6] 90 % of control | [7] 96 % of control | [8] 116 % of control | [9] 95 % of control

CCC(C)C(C=O)(CCN(C)CC)c1cccc2ccccc12 (centres undefined)
inactive: dose: 25.0 mg/kg/injection, schedule: Q04DX002 (ip), vehicle: saline with Tween-80 91 % of control | dose: 50.0 mg/kg/injection, schedule: Q04DX002 (ip), vehicle: saline with Tween-80 94 % of control

O=C(Nc1cccc(C2=NCCN2)c1)c1cc(Cl)cc(C(=O)Nc2cccc(C3=NCCN3)c2)c1
inactive: dose: 7.0 mg/kg/injection, schedule: Q01DX Z (ip), vehicle: methylcellulose (MC) 92 % of control | dose: 11.0 mg/kg/injection, schedule: Q01DX Z (ip), vehicle: methylcellulose (MC) 100 % of control | dose: 16.0 mg/kg/injection, schedule: Q01DX Z (ip), vehicle: methylcellulose (MC) 87 % of control | dose: 25.0 mg/kg/injection, schedule: Q01DX Z (ip), vehicle: methylcellulose (MC) 97 % of control

O=c1[nH]cc(Sc2ccccc2)c(=O)[nH]1
inactive: [10] 101 % of control | [11] 93 % of control | [12] 96 % of control

CCOC(=O)c1ccc(NCC(=O)CNc2nc(N)nc(N)c2[N+](=O)[O-])cc1
inactive: dose: 75.0 mg/kg/injection, schedule: Q01DX001 (ip), vehicle: other 95 % of control | dose: 150.0 mg/kg/injection, schedule: Q01DX001 (ip), vehicle: other 90 % of control | dose: 300.0 mg/kg/injection, schedule: Q01DX001 (ip), vehicle: other 87 % of control

COc1cc2c(c(OC)c1OC)-c1ccc(SCC3CCC4CC3C4(C)C)c(=O)cc1C(NC(C)=O)CC2 (centres undefined)
inactive: dose: 12.5 mg/kg/injection, schedule: Q04DX002 (ip), vehicle: saline 100 % of control | dose: 25.0 mg/kg/injection, schedule: Q04DX002 (ip), vehicle: saline 95 % of control | dose: 50.0 mg/kg/injection, schedule: Q04DX002 (ip), vehicle: saline 106 % of control

OC1COC(n2cnc3c(=S)nc[nH]c32)C(O)C1O (centres undefined)
inactive: dose: 5.0 mg/kg/injection, schedule: Q01DX001 (ip), vehicle: saline 98 % of control | dose: 10.0 mg/kg/injection, schedule: Q01DX001 (ip), vehicle: saline 102 % of control | dose: 20.0 mg/kg/injection, schedule: Q01DX001 (ip), vehicle: saline 98 % of control | dose: 40.0 mg/kg/injection, schedule: Q01DX001 (ip), vehicle: saline 96 % of control | [1] 115 % of control | dose: 80.0 mg/kg/injection, schedule: Q01DX001 (ip), vehicle: saline 98 % of control | [2] 105 % of control and 100 % of control | [3] 111 % of control and 100 % of control and 101 % of control | dose: 400.0 mg/kg/injection, schedule: Q01DX001 (ip), vehicle: saline 101 % of control and 103 % of control

O=C(/C(=N/O)c1ccc(Cl)cc1)c1ccccc1
inactive: dose: 50.0 mg/kg/injection, schedule: Q01DX009 (ip), vehicle: Klucel (hydroxypropylcellulose) (HPC) 89 % of control | dose: 75.0 mg/kg/injection, schedule: Q01DX001 (ip), vehicle: Klucel (hydroxypropylcellulose) (HPC) 89 % of control | [13] 96 % of control | dose: 150.0 mg/kg/injection, schedule: Q01DX001 (ip), vehicle: Klucel (hydroxypropylcellulose) (HPC) 100 % of control | [14] 107 % of control | dose: 300.0 mg/kg/injection, schedule: Q01DX001 (ip), vehicle: Klucel (hydroxypropylcellulose) (HPC) 98 % of control

O=C1C(n2ccc(=O)n(Cc3ccccc3)c2=O)CCN1CCO (centres undefined)
inactive: [5] 96 % of control | [7] 119 % of control | [9] 102 % of control

O=C(Nc1cc(Cl)cc2c1-c1c(Cl)cc(Cl)cc1C2)C(Cl)Cl
inactive: dose: 50.0 mg/kg/injection, schedule: Q04DX003 (ip), vehicle: Klucel (hydroxypropylcellulose) (HPC) 100 % of control | [13] 97 % of control | dose: 100.0 mg/kg/injection, schedule: Q04DX003 (ip), vehicle: Klucel (hydroxypropylcellulose) (HPC) 92 % of control | dose: 200.0 mg/kg/injection, schedule: Q04DX003 (ip), vehicle: Klucel (hydroxypropylcellulose) (HPC) 94 % of control | dose: 400.0 mg/kg/injection, schedule: Q04DX003 (ip), vehicle: Klucel (hydroxypropylcellulose) (HPC) 100 % of control

CCOC(=O)c1csc(C)n1
inactive: dose: 100.0 mg/kg/injection, schedule: Q01DX009 (ip), vehicle: saline 103 % of control | [5] 99 % of control | dose: 200.0 mg/kg/injection, schedule: Q01DX009 (ip), vehicle: saline 102 % of control | [7] 96 % of control | dose: 400.0 mg/kg/injection, schedule: Q01DX009 (ip), vehicle: saline 109 % of control | [9] 92 % of control

CCOC(=O)/C=C/P(=O)(OCC)OCC
inactive: [5] 108 % of control | [7] 94 % of control | [9] 96 % of control

COC(=O)c1ccccc1NC(=O)Nc1cccc(F)c1
inactive: [13] 95 % of control | [14] 101 % of control | [15] 113 % of control

N#Cc1nc2ccccc2nc1C#N
inactive: dose: 12.5 mg/kg/injection, schedule: Q01DX009 (ip), vehicle: Klucel (hydroxypropylcellulose) (HPC) 102 % of control | dose: 12.5 mg/kg/injection, schedule: Q04DX003 (ip), vehicle: Klucel (hydroxypropylcellulose) (HPC) 97 % of control | dose: 25.0 mg/kg/injection, schedule: Q01DX009 (ip), vehicle: Klucel (hydroxypropylcellulose) (HPC) 102 % of control | dose: 25.0 mg/kg/injection, schedule: Q04DX003 (ip), vehicle: Klucel (hydroxypropylcellulose) (HPC) 88 % of control

CC(=O)OC1CC2C(C(=O)O)C2C1OC(C)=O (centres undefined)
inactive: dose: 100.0 mg/kg/injection, schedule: Q01DX001 (ip), vehicle: saline with Tween-80 104 % of control | dose: 200.0 mg/kg/injection, schedule: Q01DX001 (ip), vehicle: saline with Tween-80 92 % of control | dose: 400.0 mg/kg/injection, schedule: Q01DX001 (ip), vehicle: saline with Tween-80 95 % of control

COc1ccc(Cl)cc1NC(=O)Nc1ccc(SC)cc1
inactive: [13] 98 % of control | [14] 94 % of control | [15] 96 % of control

CCOC(=O)CNC(=O)Nc1ccc(S(N)(=O)=O)cc1
inactive: [16] 95 % of control | [17] 96 % of control | [18] 96 % of control

Cc1nc(OCc2ccccc2)c(C(=O)OCc2ccccc2)nc1C
inactive: [16] 103 % of control | [10] 101 % of control | [17] 97 % of control | [11] 102 % of control | [18] 101 % of control | [12] 98 % of control

Cc1ccc(N(O)C(=O)Nc2ccccc2)cc1
inactive: dose: 50.0 mg/kg/injection, schedule: Q01DX015 (ip), vehicle: methylcellulose (MC) 102 % of control | dose: 100.0 mg/kg/injection, schedule: Q01DX015 (ip), vehicle: methylcellulose (MC) 91 % of control | dose: 200.0 mg/kg/injection, schedule: Q01DX015 (ip), vehicle: methylcellulose (MC) 96 % of control

O=S(=O)(O)Cc1ccc(Cl)cc1Cl
inactive: [4] 95 % of control | [6] 103 % of control | [8] 116 % of control
